Assay results published in ChEMBL document CHEMBL4609992, “Discovery of novel small molecule induced selective degradation of the bromodomain and extra-terminal (BET) bromodomain protein BRD4 and BRD2 with cellular potencies” (Bioorg Med Chem, 2020).
Activity calls are given as the source filed them. The rule behind the calls is not given here.

Experiments:
[1] = target: T1, Protein cereblon/Bromodomain-containing protein 4/Cullin-4A (Homo sapiens) (UniProt O60885+Q96SW2+Q13619); experiment: Protac activity at cereblon/cullin4A/BRD4 in human MV4-11 cells assessed as downregulation of c-Myc at 50 nM measured after 18 hrs by Western blot analysis; assay type: cell-based
[2] = target: T1, Protein cereblon/Bromodomain-containing protein 4/Cullin-4A (Homo sapiens); experiment: Protac activity at cereblon/cullin4A/BRD4 in human MV4-11 cells assessed as induction of BRD4 degradation at 100 nM measured after >= 8 hrs by Western blot analysis; assay type: cell-based
MV4-11 [3] = experiment: Antiproliferative activity against human MV4-11 cells assessed as reduction in cell viability measured after 48 hrs by CellTiter-Glo assay; assay type: functional, cell-based; details: MV4-11, 48 h
MOLM-13 = experiment: Antiproliferative activity against human MOLM13 cells assessed as reduction in cell viability measured after 48 hrs by CellTiter-Glo assay; assay type: functional, cell-based; details: MOLM-13, 48 h
[4] = target: T1, Protein cereblon/Bromodomain-containing protein 4/Cullin-4A (Homo sapiens); experiment: Protac activity at cereblon/cullin4A/BRD4 in human MV4-11 cells assessed as induction of BRD4 degradation at 500 nM measured after 18 hrs by Western blot analysis relative to control; assay type: cell-based
[5] = target: T1, Protein cereblon/Bromodomain-containing protein 4/Cullin-4A (Homo sapiens); experiment: Protac activity at cereblon/cullin4A/BRD4 in human MV4-11 cells assessed as induction of BRD4 degradation at 100 nM measured after 1 to 4 hrs by Western blot analysis; assay type: cell-based
[6] = target: T2, Bromodomain-containing protein 4 (Homo sapiens, UniProt O60885); experiment: Binding affinity to recombinant human N-terminal His-tagged BRD4 BD1 (44 to 170 residues) expressed in Escherichia coli using H4K5AcK8Ac as substrate measured after 30 mins by AlphaScreen assay
[7] = target: T2, Bromodomain-containing protein 4; experiment: Binding affinity to recombinant human N-terminal His-tagged BRD4 BD2 (349 to 460 residues) expressed in Escherichia coli measured after 30 mins by AlphaScreen assay
[8] = target: T2, Bromodomain-containing protein 4; experiment: Selectivity index, ratio of IC50 for BRD4 BD2 (unknown origin) to IC50 for BRD4 BD1 (unknown origin)
MV4-11 [9] = experiment: Induction of apoptosis in human MV4-11 cells at 10 uM measured after 24 hrs by Annexin V-FITC/propidium iodide staining based FACScan flow cytometry relative to control; assay type: functional

| Compound | IC50 (MV4-11 [3]) [nM] | IC50 (MOLM-13) [nM] | further results |
| --- | --- | --- | --- |
| COc1ccccc1S(=O)(=O)Nc1ccc2c3c(cc(CCC(=O)NCCCNc4cccc5c4C(=O)N(C4CCC(=O)NC4=O)C5=O)cc13)C(=O)N2C (centres undefined) | 25.2 | 180 | Activity [1]: Active; Activity [2]: Active; Activity [4]: 100%; Activity [5]: Active |
| COC(=O)CCc1cc2c3c(ccc(NS(=O)(=O)c4ccccc4OC)c3c1)N(C)C2=O | – | – | IC50 [6]: 365 nM; IC50 [7]: 3690 nM |
| COc1ccccc1S(=O)(=O)Nc1ccc2c3c(cc(CCC(=O)NCCNc4cccc5c4C(=O)N(C4CCC(=O)NC4=O)C5=O)cc13)C(=O)N2C (centres undefined) | 1650 | > 10000 | – |
| Cc1sc2c(c1C)C(c1ccc(Cl)cc1)=N[C@@H](CC(=O)OC(C)(C)C)c1nnc(C)n1-2 | 80.8 | – | – |
| COc1ccccc1S(=O)(=O)Nc1ccc2c3c(cc(CCC(=O)NCCCCCNc4cccc5c4C(=O)N(C4CCC(=O)NC4=O)C5=O)cc13)C(=O)N2C (centres undefined) | 32.2 | 177 | – |
| COc1ccccc1S(=O)(=O)Nc1ccc2c3c(cc(CCC(=O)NCCCCCCNc4cccc5c4C(=O)N(C4CCC(=O)NC4=O)C5=O)cc13)C(=O)N2C (centres undefined) | 3430 | > 10000 | – |
| COc1ccccc1S(=O)(=O)Nc1ccc2c3c(cccc13)C(=O)N2C | 370 | 3370 | Ratio IC50 [8]: 50; Activity (MV4-11 [9]): 86.07% |
